The source of these data is patent EP0652290A1, “Method for regulation of NF-kB” (YISSUM RESEARCH DEVELOPMENT COMPANY OF THE HEBREW …, priority 1993, dated 1995).

Experiment [1] deals with NF-κB. Put plainly: NF-κB activation by EMSA, Jurkat cells stimulated with TNF-α. As to conditions: for IC90: Homo sapiens, Jurkat cells, 30 min pretreatment, stimulated by TNF-α, EMSA, read-out: IC90, 90% inhibitory concentration, activation of NF-κB, Jurkat; for induction of NF-κB DNA-binding activity in response to PMA and TNF-α: Jurkat (TNF-α) and 70Z/3 (PMA) cell cultures, even at high concentrations. The experiment is classed as cell-based. How it is done:
The functional significance of the inducible decay of IκBα for activation of NF-κB was tested by exposure of cell cultures to various protease inhibitors. Six distinct serine protease inhibitors with chymotrypsin-like specificity efficiently prevent the induction of NF-κB DNA-binding activity in response to PMA and TNF-α (Table 1). Constitutive DNA-binding activities, including Oct-1, were not affected and no significant cell death was observed by a dye-exclusion assay and phase-contrast microscopy at inhibitor concentrations preventing […] activation. Leupeptin, antipain and the trypsin inhibitor tosyl-Lys-methylester were not effective, even at high concentrations.
Background: Mobility shift assays separate free from complexed probe on a gel.

For experiment [2], the system named is NF-κB. In words: NF-κB activation by EMSA, 70Z/3 cells stimulated with PMA, IL-1β or LPS. The experiment is classed as cell-based. As to conditions: for IC90: 30 min pretreatment, stimulated by PMA, EMSA, read-out: IC90, 90% inhibitory concentration, activation of NF-κB, 70Z/3; for induction of NF-κB activity in response to PMA: 25 µM.
Experiment [3] deals with IκBα. In words: IκBα level and stability by Western blot in 70Z/3 cells. The experiment is classed as cell-based.
A further experiment deals with 70Z/3 cells. Put plainly: Inhibition of protein synthesis in 70Z/3 cells. The experiment is classed as cell-based. The conditions noted are these: read-out: protein synthesis is inhibited. How it is done: 70Z/3 cells were treated with 25 µg/ml cycloheximide (Sigma). The protein synthesis inhibitor cycloheximide (CHX) activates NF-κB in 70Z/3 cells. At 10 µg/ml, protein synthesis is inhibited to 90% in 70Z/3 cells. Cell culture, extract preparation, EMSA, SDS-PAGE and Western blotting were as described above in Example 1. Densitometric scanning was done with a Howtek Scanmaster 3 and data analyzed by the software Quantity One Version 2.2.

For experiment [4], the system named is NF-κB. In words: HIV-LTR-Luc reporter activity in Jurkat cells. The experiment is classed as cell-based. The conditions noted are these: stimulated 8 hours, PMA 10 ng/ml. On the procedure: Jurkat cells were stimulated with the following reagents: (P), PMA (phorbol-12 myrislated 13-acetate), 10 ng/ml; (I), A23187 Ca⁺⁺ ionophore, 1µM; (3), anti-CD3 (OKT3), 5µg/ml; (28) anti-CD28 (monoclonal antibody 9.3), 3 µg/ml; (P/I), PMA + Ca⁺⁺ ionophore in IκBα transfected Jurkat cells; (NS) non-stimulated (0.1%, DMSO only).
The steps involved in the activation of NF-κB, include IκBα elimination through the appearance of the nuclear DNA binding activity, and the transcriptional activity. NF-κB activation was measured through the reporter activity of the HIV-LTR promoter, which is largely controlled by NF-κB in conjunction with the HIV Tat protein (Nabel, G., et al., Nature, 326:711-713, 1987). Jurkat cells were stimulated with the following reagents: (P), PMA (phorbol-12 myrislated 13-acetate), 10 ng/ml; (I), A23187 Ca⁺⁺ ionophore, 1µM; (3), anti-CD3 (OKT3), 5µg/ml; (28) anti-CD28 (monoclonal antibody 9.3), 3 µg/ml; (P/I), PMA + Ca⁺⁺ ionophore in IκBα transfected Jurkat cells; (NS) non-stimulated (0.1%, DMSO only). Jurkat cells were transfected by electroporation (Su, B., et al., supra) with 1 µg HIV-LTR-LUC (Israel, S., et al., Gene, 104:139-145, 1991) and 4 µg PBC-TAT. […] Following 30 hours transfection, the cells were stimulated for 8 hours and luciferase activity was determined using the Promega luciferase assay system.

Experiment [5] concerns IκBα. Put plainly: IκBα phosphorylation and degradation by Western blot, Jurkat cells stimulated with PMA and Ca⁺⁺ ionophore. The experiment is classed as cell-based. As to conditions: 25 µM TPCK or 400 ng/ml CsA 30 min, 100 µM PDTC 1 hour before PMA + Ca⁺⁺ ionophore. How it is done: Subcellular protein extracts were prepared essentially according to Beg, A.A. et al., supra. Following 20 minutes stimulation of Jurkat cells, cytosolic extracts (50 µg/point) were analyzed by Western blot, and nuclear extracts (5 µg/point) by EMSA, as described (Henkel, T., et al., Nature, 365:182-185, 1993).
Rabbit anti-IκBα was prepared against the GST-IκBα fusion protein by standard methods. The specifity of the antibodies was confirmed in competition assays using recombinant IκBα protein.
On the basis of the results in Example 3, phosphorylation of IκBα, in parallel to NF-κB activation, is induced according to the physiological requirements for T cell activation. Cell stimulation and extract preparation was as described above. […] Duration of Jurkat cell stimulation with PMA (10 ng/ml) and Ca⁺⁺ ionophore (1µM) was determined by Western blot analysis. […]
N-acetyl-Leu-Leu-Norleucinal (AcLLnL) is a reversible non-alkylating proteosome inhibitor not likely to disturb post-translation modification events. […] Anti-Rel A serum was a rabbit polyclonal antiserum prepared against the C-terminus portion of Rel A. In FIGURE 6a, cells were pretreated for 4 hours with 50 µg/ml AcLLnL, stimulated with PMA (10 ng/ml) and Ca⁺⁺ ionophore (1 µM) for the time intervals indicated and analyzed by Western blot. […]
(In western blotting, separated proteins are transferred to a membrane and probed.)

Experiment [6] has as its system NF-κB. Put plainly: NF-κB activation by TNF-α in various other cell lines. The experiment is classed as cell-based. As to conditions: various other cells lines.
The test system of experiment [7] is NF-κB. Put plainly: Dose response of NF-κB DNA binding (EMSA) in Hela cells stimulated with TNFα. The experiment is classed as cell-based. On the procedure: Hela cells were pretreated for 5 hours with the indicated concentration of peptide aldehyde inhibitor or left untreated and then stimulated with TNFα (15ng/ml) for 20 minutes. The cells were then harvested for whole cell extract preparation. Extracts were analyzed for NF-κB DNA binding activity by electrophoretic mobility shift assay (EMSA) and relative IκBα protein levels were measured by Western blot analysis as shown in FIGURE 9.
IC₅₀ for ZLLF was 3.4 µM and 12.1 µM for AcLLnL.

Experiment [8] concerns IκBα. In words: IκB degradation by Western blot in HeLa S3 or Hep G2 cells after TNFα, IL-1 or PMA. The experiment is classed as cell-based, Human. As to conditions: HeLa S3 or Hep G2, 4 hours pretreatment, 20 minutes. On the procedure: Human HeLa S3 or Hep G2 cells were pretreated for 4 hours with the indicated peptide aldehyde prior to simulation with either TNFα (20ng/ml), IL-1(20 ng/ml) or PMA (100 µg/ml). The cells were harvested 20 minutes after induction and the extent of IκB degradation was examined via Western blot analysis using IκB specific antisera. FIGURE 7 summarizes the ability of related peptide aldehydes to block IκB degradation induced by a variety of agents which activate NF-κB. (+++) indicates greater than 85% inhibition, (++) indicates greater than 60% inhibition and (-) indicates no inhibition of IκB degradation was observed.

Where a SMILES comes first, the peptide text is derived from it. The star is where a group is joined. Cbz = O=C(OCc1ccccc1)*; CH2Cl = ClC*

Take `CC(=O)NC(Cc1ccccc1)C(=O)Oc1ccc2ccccc2c1` (racemic) [N-Acetyl-DL-Phe-β-Naphthylester (APNE), N-Acetyl-DL-Phe-β-Naphthylester]: the IC90 in the experiment on NF-κB [1] came to 200 µM.

With `O=c1oc(Cl)c(Cl)c2ccccc12` [3,4-Dichloroisocoumarin], the IC90 in the experiment on NF-κB [1] was determined as 20 µM.

`CC(C)C[C@H](NC(=O)OCc1ccccc1)C(=O)N[C@@H](Cc1ccc(O)cc1)C(=O)CCl` [Benzyloxycarbonyl-Leu-Tyr-chloromethylketone] (Cbz-Leu-Tyr-CH2Cl): in the experiment on NF-κB [2] (70Z/3 cells), the IC90 worked out at 10 µM.

In the case of `C[C@@H]1C[C@@H]([C@H](O)CC2CC(=O)NC(=O)C2)C(=O)[C@@H](C)C1` [CHX, cycloheximide], the “DNA binding of NF-κB” value in the experiment with NF-κB [2] (1 hour treatment of 70Z/3 cells with CHX, no PMA) is recorded as “induced only weakly”. Further, in the experiment on IκBα [3] (CHX-treated 70Z/3 cells, 25 µg/ml, no PMA), the “half-life of IκBα” value was “approximately 138 minutes”. In the experiment on 70Z/3 cells, the inhibition at 10 µg/mL amounted to 90%.

With `CC(=O)N[C@@H](CC(C)C)C(=O)N[C@@H](CC(C)C)C(=O)N[C@H](C=O)CCCNC(=N)N` [Leupeptin], the “induction of NF-κB DNA-binding activity in response to PMA and TNF-α” value in the experiment with NF-κB [1] is “not effective”.

Consider `CCOC(=O)[C@H](Cc1ccc(O)cc1)NC(=O)c1ccccc1` [N-Benzoyl-L-Tyr-ethylester (BTEE), N-Benzoyl-L-Tyr-ethylester], for which the IC90 in the experiment with NF-κB [1] turned out to be 1000 µM.

Take `CCCCCCCCCCCCCC(=O)O[C@@H]1[C@@H](C)[C@@]2(O)[C@@H](C=C(CO)C[C@]3(O)C(=O)C(C)=C[C@@H]23)[C@@H]2C(C)(C)[C@]12OC(C)=O` [PMA, phorbol 12-myristate 13-acetate]: in the experiment on IκBα [3] (70Z/3 cells), the “time after stimulation until most of the IκBα had decayed” value was not above 5 min. In the experiment with IκBα [3] (protein synthesis-arrested (CHX) 70Z/3 cells stimulated with PMA, phase of fastest decay), the “half-life of IκBα” value was determined as 1.5 min. In the experiment on NF-κB [4], the “enhancement of reporter activity (HIV-LTR-Luc) over basal” value is “two-fold”.

Regarding `Cc1ccc(S(=O)(=O)NC(CCCCN)C(=O)CCl)cc1` (stereo not drawn) [TLCK, Tosyl-Lys-chloromethylketone], the “induction of NF-κB activity in response to PMA” value with NF-κB [2] (70Z/3 cells) is “could not prevent”. In addition, the IC90 with NF-κB [2] (70Z/3 cells) and in the experiment on NF-κB [1] was 100 µM in each case.

Consider `Cc1ccc(S(=O)(=O)N[C@@H](Cc2ccccc2)C(=O)CCl)cc1` [TPCK, Tosyl-Phe-chloromethylketone], for which, in the experiment with NF-κB [2] (70Z/3 cells), the “induction of NF-κB activity in response to PMA” value is recorded as “fully inhibited” and the IC90 is 20 µM. For the same molecule, the “NF-κB activity when added after stimulation” value in the experiment with NF-κB [2] (70Z/3 cells, added after stimulation with PMA, IL-1 or LPS) is “did not strongly interfere”. The “activation of NF-κB by IL-1β and LPS” value with NF-κB [2] (70Z/3 cells, treated 10 minutes before stimulation) is on record as “prevented”. In addition, in the experiment with IκBα [3] (25 µM, 1 hour pretreatment, 70Z/3 cells), the “decay of IκB-α in response to PMA” value is recorded as “fully inhibited”. Moreover, the IC90 with NF-κB [1] came to 20 µM. Also, in the experiment with IκBα [5], the “inducible degradation of IκBα” value was “blocked both the inducible modification and degradation of IκBα completely”; the “inducible modification (phosphorylation) of IκBα” value was “blocked both the inducible modification and degradation of IκBα completely”. Besides, in the experiment on NF-κB [6], the “activation of NF-κB by TNF-α” value was “prevented”.

Consider `COC(=O)C(CCCCN)NS(=O)(=O)c1ccc(C)cc1.Cl` (stereo not drawn) [tosyl-Lys-methylester], for which, in the experiment with NF-κB [1], the “induction of NF-κB DNA-binding activity in response to PMA and TNF-α” value is “not effective”.

As to “benzyloxycarbonyl-Leu-Leu-Phenylalaninal [ZLLF]”, the “TNFα induced NF-κB activity” value in the experiment with NF-κB [7] (1µM to 200 µM, 5 hours pretreatment, TNFα 15ng/ml 20 minutes) is on record as “inhibited TNFα induced NF-κB activity in a dose-dependent manner”. For the same molecule, the IC50 with NF-κB [7] (densitometric scanning of the EMSA and Western blots, TNFα, read-out: IC₅₀) was determined as 3.4 µM. In the experiment with IκBα [8], the “rank as inhibitor of proteolysis of IκBα” value is listed as “the most potent inhibitor”.
